Measurements: patent publication US10221163B2 (priority 2015, dated 2019)

How the values were obtained:
[1] = tested on: Escherichia coli expressing NDM-1 (CLB30005, CLB30016); format: cell-based; conditions: with imipenem 1 μg/ml; for Escherichia coli expressing NDM-1 (CLB30016) MITC95: 95% inhibition of bacterial growth; for Escherichia coli MITC95: NDM-1 strain, 95% inhibition of growth
Procedure: (§1) Antibiotic Potentiation Activity: Determination of Synergistic Concentration
(§2) The bacterial strains tested included the clinical strains Escherichia coli expressing NDM-1 (CLB30005, CLB30016), Serratia marcescens expressing IMP-1 (CL5741), and Klebsiella pneumoniae expressing VIM-1 (IHMA599644). Inhibitor activity was measured in the presence and absence of imipenem in a 384-well microplate.
(§3) The clinical strains CLB30016, CL5741 and IHMA599644 were grown on trypticase soy agar containing 5% sheep's blood. The bacteria on agar plates were incubated at 35° C. with humidity overnight. The following day, individual colonies from each clinical strain were picked and resuspended in 5 ml saline to attain an OD600 of […], for CLB30016, CL5741 and IHMA599644, respectively. These were further diluted 1:100 into 1.1×CAMHB and used to inoculate the test wells as described below.
(§4) Imipenem in 10 mM 3-(N-morpholino)propanesulfonic acid (MOPS, pH 7) was stored in single use aliquots at −80° C. […] On the day of the assay, 4 μl of antibiotic was added to 45 ul of bacteria followed by 1 μl of test compound and mixed by pipetting and with an orbital shaker. The concentration of antibiotic used in the assay was 1 μg/ml. Microplates were covered and incubated at 35° C. for 22 hours to 24 hours. At the end of the incubation, absorbance was determined using a spectrophotometer.

[2] = tested on: Klebsiella pneumoniae expressing VIM-1 (IHMA599644); format: cell-based; conditions: for Klebsiella pneumoniae expressing VIM-1 (IHMA599644) MITC95: with imipenem 1 μg/ml, 95% inhibition of bacterial growth; for Klebsiella pneumoniae MITC95: VIM-1 strain IHMA599644, with imipenem 1 μg/ml, 95% inhibition of growth
Procedure: as §1, §2, §3, §4

[3] = tested on: Serratia marcescens expressing IMP-1 (CL5741); format: cell-based; conditions: for Serratia marcescens expressing IMP-1 (CL5741) MITC95: with imipenem 1 μg/ml, 95% inhibition of bacterial growth; for Serratia marcescens MITC95: IMP-1 strain CL5741, with imipenem 1 μg/ml, 95% inhibition of growth
Procedure: as §1, §2, §3, §4

[4] = tested on: Pseudomonas aeruginosa efflux− (MB9799), IMP-1; format: cell-based; conditions: concentration restoring susceptibility to imipenem at 2 μg/mL in the presence of a class A, C, D serine β-lactamase inhibitor closely related to relebactam
Excerpt: (§5) The strain background was Pseudomonas aeruginosa PAO1.
(§6) The strain set was then used as a pair to determine the effect of metallo-β-lactamase inhibitors of Formula I on the MIC of imipenem and/or ceftazidime. A fixed concentration of antibiotic was included in standard microbroth MIC tests, usually at the CLSI (Clinical and Laboratory Standards Institute) breakpoint concentration. A fixed amount of a class A/C beta-lactamase inhibitor was also included to inhibit the resident Pseudomonas AmpC enzyme. A serial titration of the metallo-β-lactamase inhibitor was included and the concentration of metallo-β-lactamase inhibitor which restores susceptibility of the strain to the included antibiotic was recorded. That concentration of metallo-β-lactamase inhibitor was then compared between the two strains to determine the fold difference between the efflux+ (MB9798) and efflux− (MB9799) strains. This was taken as an indication of the extent to which the MBLi is subject to efflux.

NDM-1 = NDM-1 (Klebsiella pneumoniae, UniProt C7C422); assay: biochemical; format: biochemical; conditions: fluorescence assay, CCF2-FA substrate, 1 pM enzyme, 2 hours at 25° C.; read-out: NDM-1 IC50
Chain of NDM-1 (C7C422 whole entry, looked up, species assumed): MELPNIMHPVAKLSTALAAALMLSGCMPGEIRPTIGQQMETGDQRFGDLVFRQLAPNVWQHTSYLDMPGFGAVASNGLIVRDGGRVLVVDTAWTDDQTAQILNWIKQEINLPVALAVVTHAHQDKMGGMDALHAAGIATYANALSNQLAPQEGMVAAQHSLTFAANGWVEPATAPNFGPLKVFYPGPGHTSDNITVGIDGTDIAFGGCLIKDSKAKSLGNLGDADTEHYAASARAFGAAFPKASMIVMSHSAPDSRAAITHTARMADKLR
Procedure: (§7) Enzyme Activity: Determination of IC50
(§8) The Class B enzyme activities were measured in the presence of the test inhibitor in a fluorescence assay against a commercially available substrate consisting of a cephalosporin core linking 7-hydroxycoumarin to fluorescein (CCF2-FA). […] In a 384-well microplate, the test inhibitor was incubated with the metallo-β-lactamase enzyme and the substrate for 2 hours at 25° C. […] The IC50 value was determined from semi-logarithmic plots of enzyme inhibition versus inhibitor concentration, with a curve generated using a 4-parameter fit.

IMP-1 = IMP-1 (Serratia marcescens, UniProt P52699); assay: biochemical; format: biochemical; conditions: fluorescence assay, CCF2-FA substrate, 2 pM enzyme, 2 hours at 25° C.; read-out: IMP-1 IC50
Chain of IMP-1 (P52699 whole entry, looked up, species assumed): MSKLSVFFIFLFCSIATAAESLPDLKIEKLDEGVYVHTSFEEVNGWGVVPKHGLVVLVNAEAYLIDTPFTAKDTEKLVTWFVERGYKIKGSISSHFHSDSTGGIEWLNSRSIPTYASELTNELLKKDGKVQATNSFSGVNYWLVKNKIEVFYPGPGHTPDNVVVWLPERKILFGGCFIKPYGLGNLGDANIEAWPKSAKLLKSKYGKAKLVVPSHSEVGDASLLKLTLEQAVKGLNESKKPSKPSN
Procedure: as §7, §8

[5] = tested on: Pseudomonas aeruginosa efflux+ (MB9798), IMP-1; format: cell-based; conditions: concentration restoring susceptibility to imipenem at 2 μg/mL in the presence of a class A, C, D serine β-lactamase inhibitor closely related to relebactam
Excerpt: as §5, §6

SMILES	Escherichia coli expressing NDM-1 (CLB30016) MITC95 [1] [µM]	Klebsiella pneumoniae expressing VIM-1 (IHMA599644) MITC95 [2] [µM]	Serratia marcescens expressing IMP-1 (CL5741) MITC95 [3] [µM]	P. aeruginosa expressing IMP-1, efflux − (MB9799) MITC95 [4] [µM]	IC50 (NDM-1) [nM]	IC50 (IMP-1) [nM]	P. aeruginosa expressing IMP-1, efflux + (MB9798) MITC95 [5] [µM]	Escherichia coli MITC95 [1] [µM]	Klebsiella pneumoniae MITC95 [2] [µM]	Serratia marcescens MITC95 [3] [µM]
Nc1nc2c(-c3ccc(S(=O)(=O)NCCN4CCCCC4=O)c(S(N)(=O)=O)c3-c3nnn[nH]3)cccc2s1 [Example 33, 4-(2-amino-1,3-benzothiazol-4-yl)-N1-[2-(2-oxopiperidin-1-yl)ethyl]-3-(1H-tetrazol-5-yl)benzene-1,2-disulfonamide]	25	25	6.25	3.125	0.0731	0.275	12.5	–	–	–
Nc1nc2c(-c3ccc(S(=O)(=O)NC[C@]4(F)CCCNC4)c(S(N)(=O)=O)c3-c3nnn[nH]3)cccc2s1.O=CO [Example 122, (S)-3-(((4-(2-aminobenzo[d]thiazol-4-yl)-2-sulfamoyl-3-(1H-tetrazol-5-yl)phenyl)sulfonamido)methyl)-3-fluoropiperidin-1-ium formate]	1.563	3.125	1.563	1.563	0.0329	0.282	3.125	–	–	–
CN(C)C(=O)c1ccccc1-c1ccc(S(=O)(=O)N[C@@H]2CCNC2)c(S(N)(=O)=O)c1-c1nnn[nH]1 [Example 129, (R)-N,N-dimethyl-4′-(N-(pyrrolidin-3-yl)sulfamoyl)-3′-sulfamoyl-2′-(1H-tetrazol-5-yl)-[1,1′-biphenyl]-2-carboxamide]	6.25	12.5	6.25	3.125	0.279	9.07	12.5	–	–	–
Nc1nc2c(-c3ccc(S(=O)(=O)N[C@@H]4CCNC4)c(S(N)(=O)=O)c3-c3nnn[nH]3)cc(F)cc2[nH]1 [Example 181, (R)-4-(2-amino-6-fluoro-1H-benzo[d]imidazol-4-yl)-N^1-(pyrrolidin-3-yl)-3-(1H-tetrazol-5-yl)benzene-1,2-disulfonamide]	0.3906	1.563	0.7813	0.7813	0.0372	0.273	0.3906	–	–	–
N=C(N)c1nc2c(-c3ccc(S(N)(=O)=O)c(S(N)(=O)=O)c3-c3nn[nH]n3)cccc2s1 [Example 192, 4-(3,4-disulfamoyl-2-(2H-tetrazol-5-yl)phenyl)benzo[d]thiazole-2-carboximidamide]	1.563	1.563	0.7813	0.7813	0.274	0.699	1.563	–	–	–
NCCNS(=O)(=O)c1ccc(-c2cccc(-c3nc[nH]n3)c2)c(-c2nn[nH]n2)c1S(N)(=O)=O [Example 224, N^4-(2-aminoethyl)-2-(2H-tetrazol-5-yl)-3′-(1H-1,2,4-triazol-3-yl)-[1,1′-biphenyl]-3,4-disulfonamide]	1.563	3.125	1.563	0.7813	0.142	0.412	1.563	–	–	–
C[N+]1(CCN)CC[C@@H](NS(=O)(=O)c2ccc(-c3cccc4[nH]c(N)nc34)c(-c3nn[nH]n3)c2S(N)(=O)=O)C1.O=CO[O-] (stereo partly drawn) [Example 248, (3R)-3-{[4-(2-amino-1H-1,3-benzodiazol-4-yl)-2-sulfamoyl-3-(2H-1,2,3,4-tetrazol-5-yl)benzene]sulfonamido}-1-(2-aminoethyl)-1-methylpyrrolidin-1-ium; methaneperoxoate]	–	–	–	0.7813	0.0105	0.147	0.7813	0.3906	0.7813	1.563
NCC(=O)NC1C=C(c2ccc(S(=O)(=O)N[C@@H]3CCNC3)c(S(N)(=O)=O)c2-c2nn[nH]n2)CCC1 (stereo partly drawn) [Example 269, 2-Amino-N-(4′-(N—((R)-pyrrolidin-3-yl)sulfamoyl)-3′-sulfamoyl-2′-(2H-tetrazol-5-yl)-3,4,5,6-tetrahydro-[1,1′-biphenyl]-3-yl)acetamide]	–	–	–	1.563	1.17	4.03	3.125	1.563	3.125	1.563
Cn1nnc2c(-c3ccc(S(=O)(=O)N[C@H]4CCNC4)c(S(N)(=O)=O)c3-c3nn[nH]n3)cccc21 [Example 293, (S)-4-(1-methyl-1H-benzo[d][1,2,3]triazol-4-yl)-N1-(pyrrolidin-3-yl)-3-(2H-tetrazol-5-yl)benzene-1,2-disulfonamide]	–	–	–	1.563	0.285	1.3	3.125	3.125	3.125	3.125
NC[C@H](N)CNS(=O)(=O)c1ccc(-c2cccn3ccnc23)c(-c2nn[nH]n2)c1S(N)(=O)=O [Example 374, (S)-N1-(2,3-diaminopropyl)-4-(imidazo[1,2-a]pyridin-8-yl)-3-(2H-tetrazol-5-yl)benzene-1,2-disulfonamide]	–	–	–	1.563	0.157	0.278	1.563	0.7813	6.25	3.125
Nc1nc2c(-c3ccc(S(=O)(=O)NCC4(O)CNC4)c(S(N)(=O)=O)c3-c3nn[nH]n3)cccc2s1 [Example 387, 4-(2-amino-1,3-benzothiazol-4-yl)-N^1-[(3-hydroxyazetidin-3-yl)methyl]-3-(2H-tetrazol-5-yl)benzene-1,2-disulfonamide]	–	–	–	1.563	0.0646	0.244	0.7813	1.563	6.25	1.563
